Molecules are shown by their SMILES. Bounds are passed on as bounds.

The source of these data is patent US10280170B2, “Substituted 4,5,6,7-tetrahydro-pyrazolo[1,5-a]pyrazine derivatives and 5,6,7,8-tetrahydro-4H-pyrazolo[1,5-a][1,4]diazepine derivatives as Ros1 inhibitors” (Janssen Pharmaceutica NV, priority 2014, dated 2019).

Series [1] addresses T1, Ros1 enzyme (Homo sapiens, UniProt P08922).
T1 construct: 0.5 μg/ml Ros1 enzyme
As to the kind of experiment: Ros1 enzymatic assay. Type of series: biochemical. The following applies: Ros1 enzymatic assay; read-out: ROS1 pIC50 (converted). Summed up:
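First, compounds meet Ros1 enzyme mix plus substrate mix containing IRS-Tide and 33P-labelled ATP at 20 μM. Next, incubation lasts 120 minutes at room temperature. Then EDTA stop buffer with streptavidin beads is added for 15 minutes, and bead-bound radioactivity is imaged.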

For series [2], the target named is T2, Ba/F3 cells containing Ros1 wild-type protein (Homo sapiens, UniProt P08922, cells depend on it, form not given).
T2 construct: The background only speaks of 'a number of different unrelated proteins' and names SLC34A2-ROS1 for HCC78 cells
T2 sequence (P08922 whole entry, stated change not applied): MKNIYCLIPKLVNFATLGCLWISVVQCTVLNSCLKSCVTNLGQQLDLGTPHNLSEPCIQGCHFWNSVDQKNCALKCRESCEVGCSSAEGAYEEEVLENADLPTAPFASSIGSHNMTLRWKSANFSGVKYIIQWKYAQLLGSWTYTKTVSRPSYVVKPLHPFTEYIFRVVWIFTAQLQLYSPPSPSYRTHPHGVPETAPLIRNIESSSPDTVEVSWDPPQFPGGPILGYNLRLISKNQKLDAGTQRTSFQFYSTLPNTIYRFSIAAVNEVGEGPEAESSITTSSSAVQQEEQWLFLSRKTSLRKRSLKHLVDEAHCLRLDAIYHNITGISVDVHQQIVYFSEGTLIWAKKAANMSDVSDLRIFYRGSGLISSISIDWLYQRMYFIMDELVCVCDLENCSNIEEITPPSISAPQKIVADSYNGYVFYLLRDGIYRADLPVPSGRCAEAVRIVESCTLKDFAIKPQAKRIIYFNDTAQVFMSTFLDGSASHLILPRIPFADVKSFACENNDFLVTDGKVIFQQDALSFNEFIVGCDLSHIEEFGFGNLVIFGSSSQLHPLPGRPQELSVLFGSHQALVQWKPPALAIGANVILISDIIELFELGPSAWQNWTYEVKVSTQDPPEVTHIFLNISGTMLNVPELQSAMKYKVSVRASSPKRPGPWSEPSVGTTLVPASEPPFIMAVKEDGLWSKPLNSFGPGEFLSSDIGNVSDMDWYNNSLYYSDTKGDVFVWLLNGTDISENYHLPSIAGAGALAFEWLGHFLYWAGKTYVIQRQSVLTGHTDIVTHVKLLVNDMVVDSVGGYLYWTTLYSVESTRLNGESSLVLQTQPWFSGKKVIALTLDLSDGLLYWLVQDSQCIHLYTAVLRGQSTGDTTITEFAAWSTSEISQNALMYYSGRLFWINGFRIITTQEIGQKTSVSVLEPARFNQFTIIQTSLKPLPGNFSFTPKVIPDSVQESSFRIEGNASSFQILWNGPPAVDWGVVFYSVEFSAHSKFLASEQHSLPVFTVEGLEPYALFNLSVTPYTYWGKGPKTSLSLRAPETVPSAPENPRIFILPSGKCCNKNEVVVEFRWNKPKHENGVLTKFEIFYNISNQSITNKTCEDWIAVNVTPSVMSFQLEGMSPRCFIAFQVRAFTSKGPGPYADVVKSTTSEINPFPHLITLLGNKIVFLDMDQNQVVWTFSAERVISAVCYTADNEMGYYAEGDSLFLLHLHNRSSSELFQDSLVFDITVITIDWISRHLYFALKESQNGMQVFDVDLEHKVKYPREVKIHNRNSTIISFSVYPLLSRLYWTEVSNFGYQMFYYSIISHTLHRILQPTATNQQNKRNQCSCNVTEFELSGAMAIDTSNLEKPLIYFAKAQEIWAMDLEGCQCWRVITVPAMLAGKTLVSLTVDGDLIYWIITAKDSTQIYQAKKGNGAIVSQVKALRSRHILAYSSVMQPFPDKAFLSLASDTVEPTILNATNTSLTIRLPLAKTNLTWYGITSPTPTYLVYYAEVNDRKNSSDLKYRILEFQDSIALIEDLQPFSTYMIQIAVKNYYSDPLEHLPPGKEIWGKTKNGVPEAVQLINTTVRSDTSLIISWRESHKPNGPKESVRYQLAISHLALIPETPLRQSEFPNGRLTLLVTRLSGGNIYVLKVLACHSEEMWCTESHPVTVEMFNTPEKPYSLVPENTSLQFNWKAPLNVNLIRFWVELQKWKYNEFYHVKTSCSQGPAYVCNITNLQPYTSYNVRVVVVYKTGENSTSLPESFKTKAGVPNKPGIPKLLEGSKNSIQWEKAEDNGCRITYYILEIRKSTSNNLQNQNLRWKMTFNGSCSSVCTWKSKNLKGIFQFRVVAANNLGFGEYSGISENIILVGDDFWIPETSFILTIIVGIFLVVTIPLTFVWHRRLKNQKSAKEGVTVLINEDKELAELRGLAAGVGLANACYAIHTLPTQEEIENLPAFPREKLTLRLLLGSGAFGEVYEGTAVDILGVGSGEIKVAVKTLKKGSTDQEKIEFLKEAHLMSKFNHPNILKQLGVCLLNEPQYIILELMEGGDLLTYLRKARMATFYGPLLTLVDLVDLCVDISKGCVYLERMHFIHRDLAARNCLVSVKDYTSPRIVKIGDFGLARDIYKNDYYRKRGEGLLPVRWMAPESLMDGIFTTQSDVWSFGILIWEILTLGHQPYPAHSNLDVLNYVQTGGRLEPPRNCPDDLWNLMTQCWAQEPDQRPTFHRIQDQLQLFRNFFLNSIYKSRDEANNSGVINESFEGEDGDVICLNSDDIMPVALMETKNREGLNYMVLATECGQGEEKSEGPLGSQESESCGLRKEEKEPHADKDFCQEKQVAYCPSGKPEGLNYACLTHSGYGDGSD
Put plainly: Ba/F3-Ros1 cell proliferation assay, wild-type Ros1. Type of series: cell-based, murine. The following applies: without IL-3. Summed up:
(§1)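 Ba/F3 cells expressing wild-type, L2026M or G2032R Ros1, 20000 cells/well in phenol red-free RPMI-1640 with 10% FBS, 2 mM L-glutamine, exposed to compound for 24 h at 37 °C, 5% CO2. Viability read by Alamar Blue (resazurin) fluorescence, ex 540/em 590 nm, after 4 h further incubation.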

Series [3] deals with Ba/F3 cells containing Ros1 with a mutation at the gatekeeper residue (L2026M) (Homo sapiens, UniProt P08922, L2026M, cells depend on it, form not given). Put plainly: Ba/F3-Ros1 cell proliferation assay, L2026M gatekeeper mutant. It is filed as cell-based, murine. The following applies: without IL-3. A digest of the protocol: as §1
Sequence of Ba/F3 cells containing Ros1 with a mutation at the gatekeeper residue (L2026M) (P08922 whole entry L2026M, form open): as the sequence (P08922 whole entry, stated change not applied) above, with L2026M counted along it
Series [4] has as its target Ba/F3 cells containing Ros1 with G2032R mutation (Homo sapiens, UniProt P08922, G2032R, cells depend on it, form not given). Put plainly: Ba/F3-Ros1 cell proliferation assay, G2032R crizotinib-resistance mutant. It is filed as cell-based, murine. The conditions noted are these: without IL-3. How it is done: Ba/F3-Ros1 Cell Proliferation Assay
This assay was carried out with Ba/F3 cells containing three different versions of Ros1: the wild-type protein, protein with a mutation at the gatekeeper residue (L2026M), and protein with a mutation identified in a tumor from a patient that became resistant to crizotinib (Xalkori®) treatment (G2032R). Compounds were solubilized in 100% DMSO (dimethyl sulfoxide) and sprayed into polystyrene, tissue culture treated 384-well plates. A 50 μl volume of cell culture medium (phenol red free RPMI-1640, 10% FBS (fetal bovine serum), 2 mM L-Glutamine) containing 20000 Ba/F3-Ros1 cells was added to each well and the plates were placed in an incubator at 37° C. and 5% CO2. After 24 hours, 10 μl of Alamar Blue solution (0.5 mM K3Fe(CN)6, 0.5 mM K4Fe(CN)6, 0.15 mM Resazurin and 100 mM Phosphate Buffer) was added to the wells, incubated for 4 hours at 37° C. and 5% CO2 before RFU's (Relative Fluorescence Units) (ex. 540 nm., em. 590 nm.) were measured in a fluorescence plate reader.

Series [5] concerns Ba/F3 cells containing Ros1 wild-type protein + IL-3. Put plainly: Ba/F3-Ros1 cell proliferation counter-screen, wild-type protein in the presence of 10 ng/ml murine IL-3. Type of series: cell-based. The conditions noted are these: Mus musculus, BaF3, 24 h, read-out: BaF3-ROS1 + IL3 pIC50 (converted). A digest of the protocol: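 Compounds were dispensed from DMSO into plates, and 20000 Ba/F3 cells carrying wild-type Ros1 were added in phenol red-free RPMI-1640 with 10% FBS plus 10 ng/ml murine IL-3. After 24 h at 37 °C, Alamar Blue was added for 4 h and fluorescence recorded.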
On the technique in general: Counterscreens check selectivity or assay interference.

For series [6], the system named is HCC78 non-small cell lung cancer cells. As to the kind of experiment: HCC78 cell proliferation assay. Type of series: cell-based. The following applies: Homo sapiens, HCC78, 96 h, read-out: HCC-78 PROL pEC50 (converted). A digest of the protocol: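 HCC78 NSCLC cells (~1000/well) in RPMI-1640 with 10% FBS were treated 24 h after seeding and exposed to compound for 4 days at 37 °C. Viability was read by MTT, with absorbance at 538 nm after DMSO/glycine solubilization.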

Series [7] deals with Ros pY2274 in HCC78 cells. Put plainly: pROS1 immunofluorescence assay in HCC78 cells. The conditions noted are these: Homo sapiens, HCC78, 4 h, read-out: HCC78-pRos1 pIC50 (converted). Type of series: cell-based. Summed up: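 HCC78 NSCLC cells treated with compound for 4 h at 37 °C, then fixed and immunostained for ROS1 pY2274 (Alexa Fluor 680, read at 700 nm). Total ROS1 stained in parallel (IRDye800cw, 800 nm) and used to normalize phospho signal.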

Sequence of Ba/F3 cells containing Ros1 with G2032R mutation (P08922 whole entry G2032R, form open): as the sequence (P08922 whole entry, stated change not applied) above, with G2032R counted along it
T1 sequence (P08922 28-2347): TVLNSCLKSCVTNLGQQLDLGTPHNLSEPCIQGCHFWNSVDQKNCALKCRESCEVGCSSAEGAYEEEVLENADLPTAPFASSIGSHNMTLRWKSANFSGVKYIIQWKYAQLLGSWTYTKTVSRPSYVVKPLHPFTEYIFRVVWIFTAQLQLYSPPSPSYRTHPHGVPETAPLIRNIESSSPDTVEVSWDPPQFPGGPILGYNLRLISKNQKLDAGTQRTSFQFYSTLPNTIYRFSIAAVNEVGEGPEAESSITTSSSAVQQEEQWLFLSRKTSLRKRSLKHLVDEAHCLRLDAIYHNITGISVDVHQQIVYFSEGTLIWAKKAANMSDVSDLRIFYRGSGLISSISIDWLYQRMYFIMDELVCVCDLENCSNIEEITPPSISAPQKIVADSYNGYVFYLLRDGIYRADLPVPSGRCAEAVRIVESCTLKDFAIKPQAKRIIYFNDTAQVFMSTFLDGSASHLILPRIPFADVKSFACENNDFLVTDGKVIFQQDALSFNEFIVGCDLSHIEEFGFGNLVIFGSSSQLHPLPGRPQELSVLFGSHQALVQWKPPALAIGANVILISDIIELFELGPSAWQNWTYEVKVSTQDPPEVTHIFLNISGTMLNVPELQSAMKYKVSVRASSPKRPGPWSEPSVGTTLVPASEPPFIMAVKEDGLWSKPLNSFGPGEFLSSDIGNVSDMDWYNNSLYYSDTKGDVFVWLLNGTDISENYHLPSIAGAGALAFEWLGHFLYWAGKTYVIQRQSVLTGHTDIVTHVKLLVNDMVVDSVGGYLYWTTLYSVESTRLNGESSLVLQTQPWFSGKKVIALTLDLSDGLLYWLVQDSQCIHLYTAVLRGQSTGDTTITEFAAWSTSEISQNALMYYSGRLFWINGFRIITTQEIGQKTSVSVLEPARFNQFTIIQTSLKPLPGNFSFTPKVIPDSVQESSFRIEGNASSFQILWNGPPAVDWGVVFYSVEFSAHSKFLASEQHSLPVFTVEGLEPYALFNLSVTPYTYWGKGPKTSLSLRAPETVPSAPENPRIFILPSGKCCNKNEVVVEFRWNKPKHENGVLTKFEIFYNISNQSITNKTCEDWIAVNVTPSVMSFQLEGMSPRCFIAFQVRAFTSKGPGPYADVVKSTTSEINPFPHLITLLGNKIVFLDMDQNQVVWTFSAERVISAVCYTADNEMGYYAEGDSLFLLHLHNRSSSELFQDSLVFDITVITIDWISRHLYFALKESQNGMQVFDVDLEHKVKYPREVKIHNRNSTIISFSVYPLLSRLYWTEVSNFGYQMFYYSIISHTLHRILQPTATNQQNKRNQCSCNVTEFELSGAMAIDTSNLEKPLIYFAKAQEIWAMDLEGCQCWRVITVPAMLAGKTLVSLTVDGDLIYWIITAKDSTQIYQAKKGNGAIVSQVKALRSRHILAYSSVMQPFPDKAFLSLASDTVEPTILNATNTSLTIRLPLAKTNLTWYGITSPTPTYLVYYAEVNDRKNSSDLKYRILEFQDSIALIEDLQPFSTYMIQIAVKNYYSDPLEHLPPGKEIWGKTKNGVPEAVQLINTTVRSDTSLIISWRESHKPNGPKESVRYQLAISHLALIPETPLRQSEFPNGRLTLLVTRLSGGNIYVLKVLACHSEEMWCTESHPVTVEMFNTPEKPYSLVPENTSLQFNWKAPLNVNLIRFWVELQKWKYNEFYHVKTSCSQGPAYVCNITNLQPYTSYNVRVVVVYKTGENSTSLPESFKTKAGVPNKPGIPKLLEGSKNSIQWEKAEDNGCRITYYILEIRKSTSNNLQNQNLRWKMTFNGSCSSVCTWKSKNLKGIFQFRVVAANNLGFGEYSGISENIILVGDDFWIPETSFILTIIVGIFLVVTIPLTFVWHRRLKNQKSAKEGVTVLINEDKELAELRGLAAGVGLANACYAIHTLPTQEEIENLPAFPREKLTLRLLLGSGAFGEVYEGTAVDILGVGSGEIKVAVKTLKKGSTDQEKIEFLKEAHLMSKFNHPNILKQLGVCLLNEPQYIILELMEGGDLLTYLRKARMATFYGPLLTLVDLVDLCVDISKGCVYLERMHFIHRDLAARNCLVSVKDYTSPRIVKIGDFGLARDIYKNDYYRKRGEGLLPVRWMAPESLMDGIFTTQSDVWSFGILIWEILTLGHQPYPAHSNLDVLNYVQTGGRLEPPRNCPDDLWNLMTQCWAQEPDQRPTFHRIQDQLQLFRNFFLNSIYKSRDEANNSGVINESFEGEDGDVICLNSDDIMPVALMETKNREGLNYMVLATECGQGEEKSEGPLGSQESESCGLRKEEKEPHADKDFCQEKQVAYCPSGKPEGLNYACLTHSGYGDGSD

The term melting point denotes the temperature, or range, at which the solid turns liquid. Turning to `CC(C)c1ccc(COc2ccc(-c3c(-c4ccncc4)nn4c3C(=O)N(CC3(C)COC3)CC4)cc2)cc1` [Compound 54], the melting point stood at 204 °C. Also, the IC50 in series [1] was 79.4 nM. Besides, the “BaF3-ROS1-IL3 pIC50” value in series [2] is on record as 7.3. Moreover, the “Ba/F3 Ros1 L2026M (-IL-3) pIC50” value in series [3] was determined as 7.2. Besides, the “Ba/3 Ros1 G2032R (-IL-3) pIC50” value in series [4] is recorded as 6.6. In series [5], the CC50 was more than 10000 nM. Besides, the EC50 in series [6] was 79.4 nM. Moreover, the IC50 in series [7] was 20 nM.

Compound `COc1cc(-c2c(-c3ccncc3)nn3c2C(=O)NCC3)ccc1OCc1ccc(C(C)C)cc1` [Compound 32] gave a melting point of 187 °C. The IC50 in series [1] is 6.31 nM. Besides, the “BaF3-ROS1-IL3 pIC50” value in series [2] was found to be 8.0. In addition, the “Ba/F3 Ros1 L2026M (-IL-3) pIC50” value in series [3] was determined as 8.0. Further, in series [4], the “Ba/3 Ros1 G2032R (-IL-3) pIC50” value was determined as 7.3. In addition, the CC50 in series [5] is more than 10000 nM. Also, in series [6], the EC50 is 50.1 nM. For the same compound, the IC50 in series [7] was 15.8 nM.

In turn, `CC(C)c1ccc(COc2ccc(-c3c(-c4ccncc4)nn4c3C(=O)NCC4)c(F)c2)cc1` [Compound 6] returned a melting point of 271 °C. For the same compound, in series [1], the IC50 is 10 nM. In series [2], the “BaF3-ROS1-IL3 pIC50” value amounted to 7.9. Moreover, the “Ba/F3 Ros1 L2026M (-IL-3) pIC50” value in series [3] amounted to 7.7. Further, the “Ba/3 Ros1 G2032R (-IL-3) pIC50” value in series [4] stood at 7.4. The CC50 in series [5] was more than 10000 nM. Further, the EC50 in series [6] was 63.1 nM. Moreover, the IC50 in series [7] was 15.8 nM.

In turn, `CC(C)c1ccc(COc2ccc(-c3c(-c4ccncc4)nn4c3C(=O)NCC4)cn2)cc1` [Compound 71] displayed a melting point of 199 °C. The IC50 in series [1] was 25.1 nM. For the same compound, in series [2], the “BaF3-ROS1-IL3 pIC50” value came out at 7.7. Also, the “Ba/F3 Ros1 L2026M (-IL-3) pIC50” value in series [3] was determined as 7.6. In addition, the “Ba/3 Ros1 G2032R (-IL-3) pIC50” value in series [4] is 7.0. Also, in series [5], the CC50 is more than 10000 nM. In addition, the EC50 in series [6] is 100 nM. Besides, the IC50 in series [7] is 39.8 nM.

As for `CC(C)(C#N)c1ccc(COc2ccc(-c3c(-c4ccncc4)nn4c3C(=O)NCC4)cc2)cc1` [Compound 10], the melting point turned out to be 280 °C. Moreover, in series [1], the IC50 is 79.4 nM. Further, in series [2], the “BaF3-ROS1-IL3 pIC50” value turned out to be 7.1. Also, the “Ba/F3 Ros1 L2026M (-IL-3) pIC50” value in series [3] stood at 6.9. Also, in series [4], the “Ba/3 Ros1 G2032R (-IL-3) pIC50” value was determined as 6.6. Besides, the CC50 in series [5] is more than 10000 nM. Further, the EC50 in series [6] is 158 nM. Further, the IC50 in series [7] is 25.1 nM.
